Results as given in patent publication US20040106658A1, “Heterocyclic fluoroalkenyl thioethers and the use thereof as pesticides(III)” (priority 2000, published 2004).
Read-outs that look alike come from different tables or passages of the source. Each block holds one molecule with its values, some of them ahead of it.

Experiments:
[1] = logP by HPLC (EEC Directive 79/831 Annex V.A8, gradient method); format: physicochemical; details: for logP (pH 2): HPLC, acetonitrile/0.1% aqueous phosphoric acid; for chromatographic logP: pH 2.3
Lucilia cuprina larvae = assay: Blowfly larvae test (development-inhibitory action); format: in vivo; details: 100 ppm active compound
Protocol: Blowfly Larvae Test (Development-Inhibitory Action)
20 mg of active compound are dissolved in 1 ml of dimethyl sulphoxide, more dilute concentrations are prepared by dilution with distilled water.
About 20 Lucilia cuprina larvae are introduced into a test tube which contains about 1 cm^3 of horse meat and 0.5 ml of the preparation of active compound to be tested. After 24 hours and 48 hours, the efficacy of the preparation of active compound is determined. The test tubes are transferred into a beaker whose bottom is covered with sand. After a further 2 days, the test tubes are removed and the pupae are counted.
The efficacy of the preparation of active compound is assessed by the number of flies that have hatched after 1.5 times the period of development of an untreated control. 100% means that no flies have hatched; 0% means that all flies have hatched normally.

Meloidogyne incognita = assay: Meloidogyne test (gall formation on lettuce roots); format: in vivo; details: 20 ppm active compound, after 14 days
Protocol: To produce a suitable preparation of active compound, 1 part by weight of active compound is mixed with the stated amounts of solvent and emulsifier, and the concentrate is diluted with water to the desired concentration.
Containers are filled with sand, solution of active compound, Meloidogyne incognita egg/larvae suspension and lettuce seeds. The lettuce seeds germinate and the plants develop. On the roots, galls are formed.
After the desired period of time, the nematicidal action is determined in % using gall formation as a measure. 100% means that no galls were found; 0% means that the number of galls on the treated plants corresponds to that of the untreated control.

[2] = tested on: larvae of the mustard beetle (Phaedon cochleariae); assay: Phaedon larvae test (cabbage leaf dip); format: in vivo; details: active compound concentration 0.1%, after 7 days
Protocol: (§1) To produce a suitable preparation of active compound, 1 part by weight of active compound is mixed with the stated amounts of solvent and emulsifier, and the concentrate is diluted with emulsifier-containing water to the desired concentration.
After the desired period of time, the kill in % is determined. 100% means that all beetle larvae have been killed; 0% means that none of the beetle larvae have been killed.

[3] = tested on: greenhouse red spider mite (Tetranychus urticae); assay: Tetranychus test (OP-resistant/dip treatment); format: in vivo; details: active compound concentration 0.1%, after 7 days
Protocol: Tetranychus Test (OP-Resistant/Dip Treatment)
as §1
Bean plants (Phaseolus vulgaris) which are heavily infested by all stages of the greenhouse red spider mite (Tetranychus urticae) are dipped into a preparation of active compound of the desired concentration.
After the desired period of time, the effect in % is determined. 100% means that all spider mites have been killed; 0% means that none of the spider mites have been killed.

[4] = tested on: Boophilus microplus (SP-resistant Parkhurst strain); assay: Test with Boophilus microplus resistant (SP-resistant Parkhurst strain), injection; format: in vivo; details: injected, checked after 7 days; for kill (activity: no oviposition of fertile eggs): 0.8 μg active compound per animal; for activity (no oviposition of fertile eggs): 0.16 μg active compound per animal
Protocol: Test With Boophilus Microplus Resistant (SP-Resistant Parkhurst Strain)
20 mg of active compound are dissolved in 1 ml of dimethyl sulphoxide, more dilute concentrations are prepared by dilution in the same solvent.
The test is carried out in 5 replications. 1 μl of the solutions is injected into the abdomen, and the animals are transferred into dishes and kept in a climatized room. After 7 days, the activity is checked by examination for oviposition of fertile eggs. Eggs whose fertility is not visible from the outside are stored in glass tubes in a controlled-environment cabinet until the larvae have hatched. An activity of 100% means that no tick has produced any fertile eggs.

[5] = tested on: peach aphid (Myzus persicae); assay: Myzus test (cabbage leaf dip); format: in vivo; details: active compound concentration 0.1%, after 6 days
Protocol: as §1
Cabbage leaves (Brassica oleracea) which are heavily infested by the peach aphid (Myzus persicae) are treated by being dipped into the preparation of active compound of the desired concentration.
After the desired period of time, the kill in % is determined. 100% means that all aphids have been killed; 0% means that none of the aphids have been killed.

[6] = tested on: Ctenocephalides felis, strain "Georgi"; assay: Test with cat fleas/oral uptake; format: in vivo; details: 100 ppm in citrated cattle blood, after 28 h
Protocol: Test With Cat Fleas/Oral Uptake
To produce a suitable formulation, a suitable solution of active compound is prepared from 20 mg of active compound and 1 ml of DMSO. 15 μl of this formulation are added to 3 ml of citrated cattle blood and stirred.
10 unfed adult fleas (Ctenocephalides felis, strain “Georgi”) are placed into a chamber (Ø3.2 cm) whose top and bottom are closed with gauze. A metal cylinder whose underside is covered with parafilm is placed onto the chamber. The cylinder contains 3 ml of blood/active compound formulation which can be taken up by the fleas through the parafilm membrane. Whereas the blood is warmed to 37° C., the temperature in the area of the flea chambers is adjusted to 25° C. Controls are mixed with the same volume of DMSO, without addition of a compound. The determinations are carried out in triplicate.
After 28 h, the mortality in % (=dead fleas) is determined.
Compounds which effect an at least 25% kill of the fleas within 28 h are judged to be effective.

SMILES: FC(F)=C(F)CCCCSc1nc(Cl)c(C(F)(F)F)s1 [Example 10]
logP (pH 2) [1]: 5.40

SMILES: FC(F)=CCCCCSc1nc(-c2ccccc2)c(-c2ccccc2)o1 [Example 8]
logP (pH 2) [1]: 6.14 | kill (efficacy: flies not hatched) (Lucilia cuprina larvae): 100% | nematicidal action (activity, gall formation as a measure) (Meloidogyne incognita): 100% | kill [2]: 100% | kill [3]: 98% | kill (activity: no oviposition of fertile eggs) [4]: 100%

SMILES: Cc1csc(SCCCCC(F)=C(F)F)n1 [Example 9]
logP (pH 2) [1]: 3.85

SMILES: FC(F)=C(F)CCCCSc1nc(Cl)c(Cl)s1 [Example 5]
logP (pH 2) [1]: 5.33 | nematicidal action (activity, gall formation as a measure) (Meloidogyne incognita): 98% | kill [2]: 100% | kill (activity: no oviposition of fertile eggs) [4]: 100%

chromatographic logP ([1]; read-out: logP (pH 2.3)): 3.47
SMILES: [O-][S+](CCCCC(F)=C(F)F)c1nc(-c2ccccc2)cs1 (stereo not shown) [Example 2, 4-phenyl-2-(6,6,5-trifluorohex-5-enylsulphinyl)-1,3-thiazole]
activity (no oviposition of fertile eggs) [4]: 100%

SMILES: FC(F)=CCCCCSc1nc(Cl)c(Cl)s1 [Example 6]
logP (pH 2) [1]: 5.53 | nematicidal action (activity, gall formation as a measure) (Meloidogyne incognita): 100% | kill [2]: 100% | kill [3]: 100% | kill [5]: 95%

chromatographic logP ([1]; read-out: logP (pH 2.3)): 5.21
SMILES: FC(F)=C(F)CCCCSc1nc(-c2ccccc2)cs1 [Example 1, 4-phenyl-2-(6,6,5-trifluorohex-5-enylthio)-1,3-thiazole]
nematicidal action (activity, gall formation as a measure) (Meloidogyne incognita): 100% | activity (no oviposition of fertile eggs) [4]: 100%

SMILES: O=S(=O)(CCCCC(F)=C(F)F)c1nc(-c2ccccc2)cs1 [Example 3, 4-phenyl-2-(6,6,5-trifluorohex-5-enylsulphonyl)-1,3-thiazole]
chromatographic logP [1]: 3.67 | activity (no oviposition of fertile eggs) [4]: 100%

SMILES: FC(F)=CCCCCSc1nc(-c2ccccc2)cs1 [Example 4]
logP (pH 2) [1]: 5.38 | nematicidal action (activity, gall formation as a measure) (Meloidogyne incognita): 100% | kill [3]: 98% | kill (mortality) [6]: 100% | activity (no oviposition of fertile eggs) [4]: 100% | kill (activity: no oviposition of fertile eggs) [4]: 100%

SMILES: FC(F)=CCCCCSc1nc(Cl)c(C(F)(F)F)s1 [Example 12]
logP (pH 2) [1]: 5.62

SMILES: FC(F)=C(F)CCCCSc1nc(-c2ccccc2)c(-c2ccccc2)o1 [Example 7]
logP (pH 2) [1]: 5.96 | nematicidal action (activity, gall formation as a measure) (Meloidogyne incognita): 100%

SMILES: Cc1nc(SCCCCC(F)=C(F)F)sc1C [Example 11]
logP (pH 2) [1]: 4.20
